The values that follow come from patent US6432959B1, “Inhibitors of farnesyl-protein transferase” (Schering Corporation, priority 1998, dated 2002).

“And” between values parts separate entries of the source, which are not always exact repeats. Equal values may be shown once.

By IC50 is commonly meant the point on the concentration scale where inhibition reaches its midpoint. Low values mean greater potency, high ones weaker potency. By melting point is commonly meant the temperature of the solid-liquid transition.

For one data set, the target named is T1, partially purified rat brain farnesyl protein transferase (FPT) (Rattus norvegicus, UniProt Q02293+Q04631).
T1 construct: partially purified rat brain farnesyl protein transferase (FPT); from tissue; host or cells: rat brain
The experiment in a line: FPT IC50, in vitro enzyme assay (inhibition of Ras-CVLS farnesylation). The class given is biochemical. Conditions: inhibition of Ras-CVLS farnesylation by partially purified rat brain FPT; value is a range stated for a group of compounds. As for the experimental part:
1. In vitro enzyme assays: FPT IC50 (inhibition of farnesyl protein transferase, in vitro enzyme assay) are determined by the methods disclosed in WO/10515 or WO95/10516.
The compound `N#Cc1ccc(Cn2cncc2CCNC(=O)[C@H]2CN(Cc3nccs3)CCN2C(=O)NC2CCCCC2)cc1` [Example 8] registered an IC50 of 180 to 21000 pM. The same measure, in the same setting: the same measure for `CC(C)(C)CCN1CCN(C(=O)NC2CCCCC2)[C@@H](C(=O)NCCc2cncn2Cc2ccc(C#N)cc2)C1` [Example 9]: 180 to 21000 pM. `N#Cc1ccc(CN2CCN(C(=O)NC3CCCCC3)[C@@H](C(=O)NCCc3cncn3Cc3ccc(C#N)cc3)C2)cc1` [Example 10] had an IC50 of 180 to 21000 pM.

`N#Cc1ccc(Cn2cncc2CCNC(=O)[C@H]2CN(Cc3ccccc3C#N)CCN2C(=O)NC2CCCCC2)cc1` [Example 11] displayed an IC50 of 180 to 21000 pM.

The compound `COc1ccc(CN2CCN(C(=O)NC3CCCCC3)[C@@H](C(=O)NCCc3cncn3Cc3ccc(C#N)cc3)C2)cc1` [Example 12] had an IC50 of 180 to 21000 pM.

For `N#Cc1ccc(Cn2cncc2CCNC(=O)[C@H]2CN(CC3CCCCC3)CCN2C(=O)NC2CCCCC2)cc1` [Example 13], the IC50 was 180 to 21000 pM. Still for that read-out and setting: the same measure for `N#Cc1ccc(Cn2cncc2CCNC(=O)[C@H]2CN(Cc3ccc(F)cc3)CCN2C(=O)NC2CCCCC2)cc1` [Example 14]: 180 to 21000 pM. As to `N#Cc1ccc(Cn2cncc2CCNC(=O)[C@H]2CN(Cc3ccc(C(F)(F)F)cc3)CCN2C(=O)NC2CCCCC2)cc1` [Example 15], the IC50 lay in the range of 180 to 21000 pM. `N#Cc1ccc(Cn2cncc2CCNC(=O)[C@H]2CN(Cc3ccc(Cl)cc3)CCN2C(=O)NC2CCCCC2)cc1` [Example 16]: the IC50 was 180 to 21000 pM. `N#Cc1ccc(Cn2cncc2CCNC(=O)[C@H]2CN(Cc3ccc(Br)cc3)CCN2C(=O)NC2CCCCC2)cc1` [Example 17] had a half-inhibitory concentration (IC50) of 180 to 21000 pM. Still for that read-out and setting: the result for `CC(=O)Nc1ccc(CN2CCN(C(=O)NC3CCCCC3)[C@@H](C(=O)NCCc3cncn3Cc3ccc(C#N)cc3)C2)cc1` [Example 20] reads 180 to 21000 pM. Compound `N#Cc1ccc(Cn2cncc2CCNC(=O)[C@H]2CN(Cc3cccc4ccccc34)CCN2C(=O)NC2CCCCC2)cc1` [Example 21] yielded an IC50 of 180 to 21000 pM.

Compound `Cc1ccc(CN2CCN(C(=O)NC3CCCCC3)[C@@H](C(=O)NCCc3cncn3Cc3ccc(C#N)cc3)C2)cc1` [Example 22] displayed an IC50 of 180 to 21000 pM.

With `N#Cc1ccc(Cn2cncc2CCNC(=O)[C@H]2CN(Cc3ccc(O)cc3)CCN2C(=O)NC2CCCCC2)cc1` [Example 23], the IC50 lay in the range of 180 to 21000 pM. In turn, `N#Cc1ccc(Cn2cncc2CCNC(=O)[C@H]2CN(Cc3ccc(Cl)cc3Cl)CCN2C(=O)NC2CCCCC2)cc1` [Example 24] registered an IC50 of 180 to 21000 pM. `N#Cc1ccc(Cn2cncc2CCNC(=O)[C@H]2CN(Cc3cccc(Cl)c3)CCN2C(=O)NC2CCCCC2)cc1` [Example 25] displayed an IC50 of 180 to 21000 pM. As for `COc1cccc(CN2CCN(C(=O)NC3CCCCC3)[C@@H](C(=O)NCCc3cncn3Cc3ccc(C#N)cc3)C2)c1` [Example 26], the IC50 is 180 to 21000 pM. For `COc1ccccc1CN1CCN(C(=O)NC2CCCCC2)[C@@H](C(=O)NCCc2cncn2Cc2ccc(C#N)cc2)C1` [Example 27], the IC50 was 180 to 21000 pM. `O=C(NCCc1cncn1Cc1ccc(Cl)cc1)[C@H]1CN(Cc2ccccc2)CCN1C(=O)NC1CCCCC1` [Example 28C, N4-phenylmethyl-N2-[2-[1-[(4-chlorophenyl)methyl]-1H-imidazol-5-yl]ethyl]-N1-cyclohexyl-1,2(R)-piperazinedicarboxamide] registered an IC50 of 180 to 21000 pM. On the same count and under the same terms, the result for `CCC(=O)N1CCN(Cc2ccccc2)C[C@@H]1C(=O)NCCc1cncn1Cc1ccc(C#N)cc1` [Example 28E, N-[2-[1-[(4-cyanophenyl)methyl]-1H-imidazol-5-yl]ethyl]-1-(1-oxopropyl)-4-phenyl(methyl)-2(R)-piperazinedicarboxamide] reads 180 to 21000 pM; that for `CCCC(=O)N1CCN(Cc2ccccc2)C[C@@H]1C(=O)NCCc1cncn1Cc1ccc(C#N)cc1` [Example 28F, N-[2-[1-[(4-cyanophenyl)methyl]-1H-imidazol-5-yl]ethyl]-1-(1-oxobutyl)-4-phenyl(methyl)-2(R)-piperazinedicarboxamide], 180 to 21000 pM. On the same count and under the same terms, the same measure for `N#Cc1ccc(Cn2cncc2CCNC(=O)[C@H]2CN(Cc3ccccc3)CCN2C(=O)c2ccccc2)cc1` [Example 28G, 1-benzoyl-N-[2-[1-[(4-cyanophenyl)methyl]-1H-imidazol-5-yl]ethyl]-4-phenylmethyl-2(R)-piperazinedicarboxamide]: 180 to 21000 pM. Same read-out and setting: the same measure for `N#Cc1ccc(Cn2cncc2CCNC(=O)[C@H]2CN(Cc3ccccc3)CCN2C(=O)Cc2ccccc2)cc1` [Example 28I, N-[2-[1-[(4-cyanophenyl)methyl]-1H-imidazol-5-yl]ethyl]-1-phenylacetyl-4-(phenylmethyl)-2(R)-piperazinedicarboxamide]: 180 to 21000 pM; for `N#Cc1ccc(Cn2cncc2CCNC(=O)[C@H]2CN(Cc3ccccc3)CCN2S(=O)(=O)Cc2ccccc2)cc1` [Example 28M, N-[2-[1-[(4-cyanophenyl)methyl]-1H-imidazol-5-yl]ethyl]-1-[(phenylmethyl)sulfonyl]-4-(phenylmethyl)-2(R)-piperazinecarboxamide]: 180 to 21000 pM; for `CC(C)(C)NC(=O)N1CCN(Cc2ccccc2)C[C@@H]1C(=O)NCCc1cncn1Cc1ccc(C#N)cc1` [Example 28O, N2-[2-[1-[(4-cyanophenyl)methyl]-1H-imidazol-5-yl]ethyl]-N1-(1,1-dimethylethyl)-4-(phenylmethyl)-1,2(R)-piperazinedicarboxamide]: 180 to 21000 pM and 180 to 1500 pM. `N#Cc1ccc(Cn2cncc2CCNC(=O)[C@H]2CN(Cc3ccccc3)CCN2C(=O)Cc2cc[n+]([O-])cc2)cc1` [Example 28P, N-[2-[1-[(4-cyanophenyl)methyl]-1H-imidazol-5-yl]ethyl]-4-(phenylmethyl)-1-(4-pyridinylacetyl)-2(R)-piperazinecarboxamide N1-oxide] showed an IC50 of 180 to 21000 pM. Take `N#Cc1ccc(Cn2cncc2CCNC(=O)[C@H]2CN(Cc3ccccc3)CCN2C(=O)CC2CCN(C(N)=O)CC2)cc1` [Example 28Q, 1-[[1-(aminocarbonyl)-4-piperidinyl]acetyl]-N-[2-[1-[(4-cyanophenyl)methyl]-1H-imidazol-5-yl]ethyl]-4-(phenylmethyl)-2(R)-piperazinecarboxamide]: the IC50 fell in the range of 180 to 21000 pM. On to `N#Cc1ccc(Cn2cncc2CCNC(=O)[C@H]2CN(Cc3ccccc3Cl)CCN2C(=O)NC2CCCCC2)cc1` [Example 28], for which the concentration for half-maximal inhibition (IC50) is 180 to 21000 pM. In the case of `N#Cc1ccc(Cn2cncc2CCNC(=O)C2CN(CCc3ccccc3)CCN2C(=O)NC2CCCCC2)cc1` (stereo not drawn) [Example 29], the IC50 lay in the range of 180 to 21000 pM. The same measure, in the same setting: the same measure for `CS(=O)(=O)N1CCN(CCc2ccccc2)CC1C(=O)NCCc1cncn1Cc1ccc(C#N)cc1` (stereo not drawn) [Example 31]: 180 to 21000 pM; for `N#Cc1ccc(Cn2cncc2CCNC(=O)C2CN(CCC3CCCCC3)CCN2C(=O)NC2CCCCC2)cc1` (stereo not drawn) [Example 32]: 180 to 21000 pM. `CCCCCN1CCN(S(C)(=O)=O)C(C(=O)NCCc2cncn2Cc2ccc(C#N)cc2)C1` (stereo not drawn) [Example 34] registered an IC50 of 180 to 21000 pM. As for `O=C(NCCc1cncn1Cc1ccc(Cl)c(Cl)c1)C1CN(CCC2CCCCC2)CCN1C(=O)NC1CCCCC1` (stereo not drawn) [Example 36], the IC50 was in the range of 180 to 21000 pM. As for `N#Cc1ccc(Cn2cncc2CCNC(=O)C2CN(C(=O)c3ccncc3)CCN2C(=O)NC2CCCCC2)cc1` (stereo not drawn) [Example 42], the IC50 was 180 to 21000 pM. Still for that read-out and setting: the same measure for `CCCCNC(=O)N1CCN(C(=O)NC2CCCCC2)C(C(=O)NCCc2cncn2Cc2ccc(C#N)cc2)C1` (stereo not drawn) [Example 47]: 180 to 21000 pM. For `O=C(NCCc1cncn1Cc1ccc(C(F)(F)F)cc1)C1CN(CCc2cccc(Cl)c2)CCN1C(=O)NC1CCCCC1` (stereo not drawn) [Example 53], the IC50 was 180 to 21000 pM. Still for that read-out and setting: the result for `N#Cc1ccc(Cn2cncc2CCNC(=O)C2CN(CCc3cccc(Cl)c3)CCN2C(=O)NC2CCCCC2)cc1` (stereo not drawn) [Example 54] reads 180 to 21000 pM and 180 to 1500 pM; that for `Cc1ccc(CCN2CCN(C(=O)NC3CCCCC3)C(C(=O)NCCc3cncn3Cc3ccc(C#N)cc3)C2)cc1O` (stereo not drawn) [Example 55], 180 to 21000 pM and 180 to 1500 pM. The same measure, in the same setting: the result for `CC(C)(C)CCN1CCN(C(=O)NC2CCCCC2)C(C(=O)NCCc2cncn2Cc2ccc(Cl)c(Cl)c2)C1` (stereo not drawn) [Example 56] reads 180 to 21000 pM.

As to `COc1cccc(CN2CCN(C(=O)NC3CCCCC3)C(C(=O)NCCc3cncn3Cc3ccc(Cl)c(Cl)c3)C2)c1` (stereo not drawn) [Example 58], the IC50 lay in the range of 180 to 21000 pM. The same measure, in the same setting: the same measure for `Cn1cncc1CCNC(=O)C1CN(CCC2CCCCC2)CCN1C(=O)NC1CCCCC1` (stereo not drawn) [Example 61]: 180 to 21000 pM; for `O=C(NCCc1cncn1Cc1ccccc1)[C@H]1CN(CCC2CCCCC2)CCN1C(=O)NC1CCCCC1` [Example 64]: 180 to 21000 pM.

Test system in the next data set: not given
Assay: not given
Conditions: not given
`CC(C)(C)OC(=O)N1CCN(C(=O)NC2CCCCC2)[C@@H](C(=O)NCCc2cncn2Cc2ccc(F)cc2)C1` [Example 2]: the melting point is 72 °C (dec.).

Turning to `O=C(NCCc1cncn1Cc1ccc(Cl)cc1)[C@H]1CN(Cc2ccccc2)CCN1C(=O)NC1CCCCC1` [Example 28C, N4-phenylmethyl-N2-[2-[1-[(4-chlorophenyl)methyl]-1H-imidazol-5-yl]ethyl]-N1-cyclohexyl-1,2(R)-piperazinedicarboxamide], the melting point was found to be 116.2 °C. The same measure, in the same setting: the result for `O=C(NCCc1cncn1CCc1ccccc1)[C@H]1CN(Cc2ccccc2)CCN1C(=O)NC1CCCCC1` [Example 28D, N4-phenylmethyl-N2-[2-[1-(phenylethyl)-1H-imidazol-5-yl]ethyl]-N1-cyclohexyl-1,2(R)-piperazinedicarboxamide] reads 64.4 °C; that for `N#Cc1ccc(Cn2cncc2CCNC(=O)[C@H]2CN(Cc3ccccc3)CCN2C(=O)c2ccccc2)cc1` [Example 28G, 1-benzoyl-N-[2-[1-[(4-cyanophenyl)methyl]-1H-imidazol-5-yl]ethyl]-4-phenylmethyl-2(R)-piperazinedicarboxamide], 115.3 to 170.3 °C. Still for that read-out and setting: the same measure for `N#Cc1ccc(Cn2cncc2CCNC(=O)[C@H]2CN(Cc3ccccc3)CCN2C(=O)Cc2ccccc2)cc1` [Example 28I, N-[2-[1-[(4-cyanophenyl)methyl]-1H-imidazol-5-yl]ethyl]-1-phenylacetyl-4-(phenylmethyl)-2(R)-piperazinedicarboxamide]: 85.6 to 96.7 °C; for `CCS(=O)(=O)N1CCN(Cc2ccccc2)C[C@@H]1C(=O)NCCc1cncn1Cc1ccc(C#N)cc1` [Example 28K, N-[2-[1-[(4-cyanophenyl)methyl]-1H-imidazol-5-yl]ethyl]-1-(ethylsulfonyl)-4-(phenylmethyl)-2(R)-piperazinecarboxamide]: 97.3 to 150.2 °C. Compound `CC(C)(C)NC(=O)N1CCN(Cc2ccccc2)C[C@@H]1C(=O)NCCc1cncn1Cc1ccc(C#N)cc1` [Example 28O, N2-[2-[1-[(4-cyanophenyl)methyl]-1H-imidazol-5-yl]ethyl]-N1-(1,1-dimethylethyl)-4-(phenylmethyl)-1,2(R)-piperazinedicarboxamide] showed a melting point of 97.8 °C.

Take `N#Cc1ccc(Cn2cncc2CCNC(=O)[C@H]2CN(Cc3ccccc3)CCN2C(=O)CC2CCN(C(N)=O)CC2)cc1` [Example 28Q, 1-[[1-(aminocarbonyl)-4-piperidinyl]acetyl]-N-[2-[1-[(4-cyanophenyl)methyl]-1H-imidazol-5-yl]ethyl]-4-(phenylmethyl)-2(R)-piperazinecarboxamide]: the melting point is 118.5 °C.

Compound `CC(C)(C)OC(=O)N1CCN(C(=O)OCc2ccccc2)[C@@H](C(=O)NCCCn2ccnc2C(N)=O)C1` [Example 28Z] gave a melting point of 71 to 75 °C.
